From patent publication US20250320213A1, “Nitrogen-Containing Heterocyclic Compounds” (Pfizer Inc., priority 2024, published 2025)
Where a name gives a salt, the structure may show the parent alone. Read-outs that look alike come from different tables or passages of the source.

How the values were obtained:
STAT6 = biological target: T1, STAT6 (Homo sapiens, UniProt P42226); experiment: STAT6 Reporter Luciferase Assay (IL-13 stimulated HaCaT keratinocyte NanoLuc reporter cells); format: cell-based
T1 construct: stably transfected HaCaT keratinocyte cell line, which expresses NanoLuc luciferase reporter gene under the transcriptional control of the STAT6 responsive promoter; endogenous in cells; host or cells: HaCaT keratinocyte reporter cell line (stably transfected with a NanoLuc reporter)
T1 sequence (P42226 1-847): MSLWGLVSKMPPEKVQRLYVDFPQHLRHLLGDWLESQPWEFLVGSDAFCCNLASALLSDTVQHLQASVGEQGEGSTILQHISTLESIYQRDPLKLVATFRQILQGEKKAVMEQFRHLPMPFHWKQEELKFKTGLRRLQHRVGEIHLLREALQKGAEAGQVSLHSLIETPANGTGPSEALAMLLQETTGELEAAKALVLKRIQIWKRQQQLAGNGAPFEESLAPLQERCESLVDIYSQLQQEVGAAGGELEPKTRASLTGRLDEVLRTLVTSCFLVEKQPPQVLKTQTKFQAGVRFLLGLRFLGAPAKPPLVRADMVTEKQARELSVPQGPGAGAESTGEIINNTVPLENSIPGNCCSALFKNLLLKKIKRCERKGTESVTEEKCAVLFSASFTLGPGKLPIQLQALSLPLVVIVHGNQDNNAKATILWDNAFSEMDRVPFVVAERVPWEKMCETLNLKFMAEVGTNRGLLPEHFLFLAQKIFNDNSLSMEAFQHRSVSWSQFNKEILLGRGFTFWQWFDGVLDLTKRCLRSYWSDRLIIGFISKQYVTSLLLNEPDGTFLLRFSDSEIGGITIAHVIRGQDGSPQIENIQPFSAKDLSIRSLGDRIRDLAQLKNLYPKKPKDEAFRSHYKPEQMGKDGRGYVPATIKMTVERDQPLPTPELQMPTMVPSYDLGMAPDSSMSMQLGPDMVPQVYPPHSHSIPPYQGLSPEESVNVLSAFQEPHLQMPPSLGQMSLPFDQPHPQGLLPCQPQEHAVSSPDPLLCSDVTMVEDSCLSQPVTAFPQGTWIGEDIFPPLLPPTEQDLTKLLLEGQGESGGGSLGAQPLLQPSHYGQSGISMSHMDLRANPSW
In short: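 Cells were plated overnight, washed, exposed to compound for two hours, stimulated with IL-13 (0.12 nM final) for four hours at 37 °C, and then lysed with Nano-Glo substrate for 15 min before luminescence reading.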

[1] = tested on: CCL17 secretion in peripheral human whole blood; experiment: Human Whole Blood (HWB) CCL17 TR-FRET Assay (IL-13 stimulated CCL17 secretion); format: cell-based
In short: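 Heparin-anticoagulated human blood; cpd 11-pt 3-fold dilution, duplicate, 2 h 37 °C preinc; IL-13 10 ng/mL final, 48 h 37 °C; spin, serum CCL17 by TR-FRET ELISA, 16 h RT, 665/615 ratio; IC50.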

[2] = STAT6 NanoLuc luciferase reporter, IL-13 stimulated HaCaT keratinocyte cells, read-out: Reporter EC50
[3] = Homo sapiens, 48 h, inhibition of CCL17 secretion in human whole blood, 10 ng/mL IL13, 48 hours
[4] = IL-13 stimulated HaCaT STAT6 NanoLuc reporter cells, read-out: Reporter EC50
[5] = human whole blood, IL-13 stimulated, 48 hours
[6] = Homo sapiens, 48 h, human whole blood, 10 ng/mL IL13, 48 hours
[7] = inhibition of CCL17 secretion in human whole blood, 10 ng/mL IL13, 48 hours
[8] = Homo sapiens, 48 h, human whole blood, IL-13 stimulated

SMILES	EC50 (STAT6; [4])	IC50 [1, 6]	other results
CC(C)n1nc(C(=O)NCc2ccc(NC(=O)N3CC[C@H](N(C)C)C3)cc2)c2c1CCN(c1ccc(C(=O)N(C)C)cn1)C2 [Example 170, (S)-N-(4-(3-(dimethylamino)pyrrolidine-1-carboxamido)benzyl)-5-(5-(dimethylcarbamoyl)pyridin-2-yl)-1-isopropyl-4,5,6,7-tetrahydro-1H-pyrazolo[4,3-c]pyridine-3-carboxamide]			EC50 (STAT6; [2]): 0.017 µM; IC50 [1, 3]: 0.082 µM
CC(C)n1nc(C(=O)NCc2ccc(NC(=O)N3CC4CC(C3)O4)cc2)c2c1CCN(c1ccc(C(=O)N(C)C)cn1)C2 [Example 184, N-(4-((5-(5-(dimethylcarbamoyl)pyridin-2-yl)-1-isopropyl-4,5,6,7-tetrahydro-1H-pyrazolo[4,3-c]pyridine-3-carboxamido)methyl)phenyl)-6-oxa-3-azabicyclo[3.1.1]heptane-3-carboxamide]	0.027 µM		IC50 [1, 5]: 0.092 µM
CC(C)n1nc(C(=O)NCc2ccc(NC(=O)N3CC4(CNC4)C3)c(F)c2)c2c1[C@@H](C)CN(c1ccc(C(=O)N(C)C)cc1)C2 [Example 595, (S)-5-(4-(dimethylcarbamoyl)phenyl)-N-(3-fluoro-4-(2,6-diazaspiro[3.3]heptane-2-carboxamido)benzyl)-1-isopropyl-7-methyl-4,5,6,7-tetrahydro-1H-pyrazolo[4,3-c]pyridine-3-carboxamide]	0.064 µM	0.083 µM	
CC(C)n1nc(C(=O)NCc2ccc(-c3ncc[nH]3)cc2)c2c1C(C(F)(F)F)CN(c1ccc(C(=O)N(C)C)cn1)C2 (single isomer, unassigned) [Example 124, rel-(R or S)-N-(4-(1H-imidazol-2-yl)benzyl)-5-(5-(dimethylcarbamoyl)pyridin-2-yl)-1-isopropyl-7-(trifluoromethyl)-4,5,6,7-tetrahydro-1H-pyrazolo[4,3-c]pyridine-3-carboxamide]			EC50 (STAT6; [2]): 0.0003 µM; IC50 [1, 7]: 0.005 µM
C[C@@H]1CN(c2ccc(C(=O)N(C)C)cn2)Cc2c(C(=O)NCc3ccc(NC(=O)N(C)C)cc3)nn(C3(C)CC3)c21 (single isomer, unassigned) [Example 551]	0.012 µM	0.104 µM	
CCn1nc(C(=O)NCc2ccc(NC(=O)N(C)C)cn2)c2c1[C@@H](C)CN(c1ncc(C(=O)N(C)C)cn1)C2 [Example 305, (S)-5-(5-(dimethylcarbamoyl)pyrimidin-2-yl)-N-((5-(3,3-dimethylureido)pyridin-2-yl)methyl)-1-ethyl-7-methyl-4,5,6,7-tetrahydro-1H-pyrazolo[4,3-c]pyridine-3-carboxamide]	0.005 µM		IC50 [1, 8]: 0.007 µM
CC(C)n1nc(C(=O)NCc2ccc(NC(=O)N3CCC4(CCCNC4)CC3)cc2)c2c1[C@@H](C)CN(c1ccc(C(=O)N(C)C)cc1)C2 [Example 622, (S)-N-(4-((5-(4-(dimethylcarbamoyl)phenyl)-1-isopropyl-7-methyl-4,5,6,7-tetrahydro-1H-pyrazolo[4,3-c]pyridine-3-carboxamido)methyl)phenyl)-2,9-diazaspiro[5.5]undecane-9-carboxamide]	0.004 µM	0.016 µM	
CC(C)n1nc(C(=O)NCc2ccc(C(N)=O)cc2)c2c1[C@@H](C)CN(c1ncc(N3CCCC3=O)cn1)C2 [Example 489, (S)-N-(4-carbamoylbenzyl)-1-isopropyl-7-methyl-5-(5-(2-oxopyrrolidin-1-yl)pyrimidin-2-yl)-4,5,6,7-tetrahydro-1H-pyrazolo[4,3-c]pyridine-3-carboxamide]	0.018 µM		IC50 [1, 8]: 0.017 µM
CNC(=O)c1ccc(CNC(=O)c2nn(C(C)C)c3c2CN(c2ccc(C(=O)N4Cc5cccnc5C4)cn2)C[C@@H]3C)cc1 [Example 396, (S)-5-(5-(6,7-dihydro-5H-pyrrolo[3,4-b]pyridine-6-carbonyl)pyridin-2-yl)-1-isopropyl-7-methyl-N-(4-(methylcarbamoyl)benzyl)-4,5,6,7-tetrahydro-1H-pyrazolo[4,3-c]pyridine-3-carboxamide]	0.001 µM		IC50 [1, 8]: 0.015 µM
CC(C)n1nc(C(=O)NCc2ccc(NC(=O)N3CCC(OC4CCNCC4)CC3)cc2)c2c1[C@@H](C)CN(c1ccc(C(=O)N(C)C)cc1)C2 [Example 485, (S)-5-(4-(Dimethylcarbamoyl)phenyl)-1-isopropyl-7-methyl-N-(4-(4-(piperidin-4-yloxy)piperidine-1-carboxamido)benzyl)-4,5,6,7-tetrahydro-1H-pyrazolo[4,3-c]pyridine-3-carboxamide hydrochloride]			EC50 (STAT6; Reporter EC50, IL-13 stimulated HaCaT STAT6 NanoLuc reporter cells): 0.001 µM; IC50 [1, 5]: 0.004 µM
CCn1nc(C(=O)NCc2ccc(NC(=O)N3CC(NC)C3)c(F)c2)c2c1[C@@H](C)CN(c1ccc(C(=O)N(C)C)cc1)C2 [Example 716, (S)-5-(4-(dimethylcarbamoyl)phenyl)-1-ethyl-N-(3-fluoro-4-(3-(methylamino)azetidine-1-carboxamido)benzyl)-7-methyl-4,5,6,7-tetrahydro-1H-pyrazolo[4,3-c]pyridine-3-carboxamide]	0.003 µM		IC50 ([1]; Homo sapiens, 48 h, human whole blood, IL-13 10 ng/mL): 0.025 µM
CC(C)n1nc(C(=O)NCc2ccc(C(N)=O)cc2)c2c1[C@@H](C)CN(c1ccc(N3CCOC3=O)cn1)C2 [Example 517, (S)-N-(4-carbamoylbenzyl)-1-isopropyl-7-methyl-5-(5-(2-oxooxazolidin-3-yl)pyridin-2-yl)-4,5,6,7-tetrahydro-1H-pyrazolo[4,3-c]pyridine-3-carboxamide]	0.009 µM		IC50 [1, 8]: 0.033 µM
CC(n1nc(C(=O)NCc2ccc(NC(=O)N(C)C)cc2)c2c1[C@H](C)CN(c1ccc(C(=O)N(C)C)cn1)C2)C(F)(F)F (mixture of isomers) [Example 553, (R)-5-(5-(dimethylcarbamoyl)pyridin-2-yl)-N-(4-(3,3-dimethylureido)benzyl)-7-methyl-1-((RS)-1,1,1-trifluoropropan-2-yl)-4,5,6,7-tetrahydro-1H-pyrazolo[4,3-c]pyridine-3-carboxamide]	0.004 µM	0.018 µM	
CC1CN(c2ccc(C(=O)N(C)C)cn2)Cc2c(C(=O)NCc3ccc(NC(=O)N(C)C)cc3)nn(C)c21 (single isomer, unassigned) [Example 7, rel-(R or S)-5-(5-(Dimethylcarbamoyl)pyridin-2-yl)-N-(4-(3,3-dimethylureido)benzyl)-1,7-dimethyl-4,5,6,7-tetrahydro-1H-pyrazolo[4,3-c]pyridine-3-carboxamide]			EC50 (STAT6; [2]): 0.033 µM; IC50 [1, 7]: 0.196 µM
CC(C)n1nc(C(=O)NCc2ccc(NC(=O)N(C)C)cc2)c2c1CCN(c1ccc(N3CCCC3=O)cn1)C2 [Example 1, N-(4-(3,3-dimethylureido)benzyl)-1-isopropyl-5-(5-(2-oxopyrrolidin-1-yl)pyridin-2-yl)-4,5,6,7-tetrahydro-1H-pyrazolo[4,3-c]pyridine-3-carboxamide]			EC50 (STAT6; [2]): 0.011 µM; IC50 [1, 3]: 0.318 µM
CC(C)n1nc(C(=O)NCc2ccc(NC(=O)N3CCN(C)CC3)cc2)c2c1[C@@H](C)CN(c1ccc(C(=O)N3Cc4cccnc4C3)cc1)C2 [Example 614, (S)-5-(4-(6,7-dihydro-5H-pyrrolo[3,4-b]pyridine-6-carbonyl)phenyl)-1-isopropyl-7-methyl-N-(4-(4-methylpiperazine-1-carboxamido)benzyl)-4,5,6,7-tetrahydro-1H-pyrazolo[4,3-c]pyridine-3-carboxamide]	0.0004 µM	0.007 µM	
CC(C)n1nc(C(=O)NCc2ccc(NC(=O)N3CCC3)cc2)c2c1[C@@H](C)CN(c1ccc(C(=O)N(C)C)cn1)C2 [Example 591, (S)-N-(4-(azetidine-1-carboxamido)benzyl)-5-(5-(dimethylcarbamoyl)pyridin-2-yl)-1-isopropyl-7-methyl-4,5,6,7-tetrahydro-1H-pyrazolo[4,3-c]pyridine-3-carboxamide]	0.001 µM	0.01 µM	
